The source of these data is US20130331442A1, “Combination Therapy for Cancer” (FINVECTOR VISION THERAPIES LTD, priority 2011, published 2013).

Entries after “also recorded” stand apart in the source; their conditions may differ.

Data set [1] can be described thus: WBC and platelet counts in rats. It counts as in vivo, rat.
A further data set has as its system BT4C cell line. Nature of the data set: in vitro cytotoxicity of TMZ on BT4C cell line. It counts as cell-based. The text has this:
However, both in vitro and in vivo experiments there were no effect with TMZ therapy alone, implicating that other mechanism of resistance are in operation.
The efficacy of TMZ is known to be affected by different DNA repair activities (Kaina, 2003; Kaina et al., 2007; Parkinson et al., 2008; Takagi et al., 2003; Takagi et al., 2008) and by the presence of functional p53 activity (Blough et al. (2010) J Neurooncol.).

The subject of the next data set is rat glioma model. Conditions: TMZ therapy alone, in vivo experiments.

Description for rat glioma model: A study was conducted concerning tumour growth rate in a rat glioma model.

For the compound `Nc1nc(O)c2ncn(COC(CO)CO)c2n1` [GCV, Ganciclovir], in data set [1], the WBC counts entry was “did not reduce these values significantly” and the platelet counts entry is given as “did not reduce these values significantly”.

As for `Cn1nnc2c(C(N)=O)ncn2c1=O` [TMZ, Temozolomide], in data set [1], the WBC counts entry was “profound adverse effect” and the platelet counts result is reported as “profound adverse effect”. Moreover, in the data set on BT4C cell line (BT4C cells first treated with AdHSV-tk/GCV, TMZ in high concentration), the cytotoxicity result was “started to demonstrate cytotoxicity”. In the data set with BT4C cell line (BT4C cells, TMZ alone, up to 1000 μM), the “effect of treatment in vitro (cytotoxicity)” value was “no effect; also recorded: does not respond to the treatment”. Moreover, the “effect of therapy in vivo” value in the data set on rat glioma model was “no effect”.
